Test [1] concerns fast inward sodium channels (TTX-sensitive) of rat hippocampal neurons. The experiment in a line: Aggregation time course versus impact on inward sodium current and other neuronal parameters. The test is classed as cell-based.
Test [2] has as its system isolated adult rat cortical and hippocampal neurons. The experiment in a line: Current-clamp recording of resting membrane potential and action potentials of single neurons (suction pipette). The test is classed as cell-based. The text has this: (§1) For all studies as described herein, single neurons freshly dissociated from adult rats (Chad et al, In, Cellular Neurobiology, Ed. J. Chad and H. Wheal, Oxford University Press (1991)) were examined using the suction pipette method (Lee et al., J. Neurosc. Methods, 2; 51-78 (1980)) under current- or voltage-clamp, with use of an Axopatch 200 Amplifier (Axon Instruments, Foster City, Calif.). Amyloid β1-40 was obtained from Polypeptide Laboratories, Torrance, Calif., or from Bachem Biochemica, Heidelberg, Germany.
Shaken aggregation assays (i.e., as in Examples 1-4) were performed as described previously (e.g., Findeis et al., Biochemistry, 38, 6791-6800 (1999)). This aggregation performed prior to use of the aggregated amyloid for contacting cells was done in the same media as the cells were contained, i.e., Hank's Balanced Salt Solution. Aggregation of amyloid for kinetic studies (i.e., as in Example 5), was done in a buffer composed of 10 mM phosphate, 100 mM NaCl, pH 7.4. […] At given times, the turbidities of the reaction mixture were read by measuring light scattering at 405 nm in a Molecular Devices (Menlo Park, Calif.) Vmax Microplate Reader. […]
In current-clamp, the resting membrane potential and action potentials of single neurons were continuously monitored for at least 10-20 minutes until the neuronal activity became stable. […]

Test [3] concerns fast inward sodium channel (TTX-sensitive) of isolated rat hippocampal neurons. The experiment in a line: Voltage-clamp recording of fast inward sodium current (INa). The format is cell-based.
Test [4] relates to calcium ion channel of isolated hippocampal neurons. Briefly: Voltage-clamp recording of neuronal inward calcium current. Conditions: 50 μM amyloid β 1-40, about 70 minutes shake-induced aggregation. The format is cell-based, rat.
Description: as §1
In this experiment, the effect of amyloid β 1-40 on the calcium ion channel was studied using the methods described in Experiment 2 for the sodium channel.

For test [5], the system named is potassium ion channel of isolated neurons. The experiment in a line: Voltage-clamp recording of potassium currents. The format is cell-based, rat.
Description: as §1
In this experiment, the effect of amyloid β 1-40 on the potassium ion channel was studied using the methods described in Experiment 2 for the sodium channel.
In voltage-clamp, within the first 2-5 minutes, in some cells the peptide induced an outward holding current measuring about 10-50 pA, but this small current was enough to hyperpolarize the resting membrane potential from −50 mV to −90 mV. In other cells, the peptide instead caused a gradual depolarization to about −40 mV due to a slight inhibition of the outward holding current. In all cells, amyloid β 1-40 blocked the delayed outward potassium current by about 30-40% at all step potentials.

The results in this text go back to patent publication US6589747B2, “Method for identifying compounds that modulate the interaction of amyloid beta or its aggregates with a voltage gated sodium channel” (priority 1999, dated 2003).

A value given as a limit tells only on which side of the number the result lay.

As for “low molecular weight peptide aggregates of amyloid β 1-40 monomer: Low molecular weight aggregates (e.g. tetramer) of amyloid β 1-40”, in test [1] (compared with monomers or polymers), the “relative potency for inhibiting the fast inward sodium channels” value is on record as “higher potency”.

Consider amyloid β 1-40, for which the “effect on action potentials” value in test [2] (11.5 μM amyloid β 1-40 added to cortical and hippocampal neurons) is recorded as “abrogation of action potentials”. In addition, in test [2] (10-50 μM amyloid β 1-40 preaggregated for different times), the “time of peptide exposure until action potentials disappeared altogether in most neurons” value was in the range of 20 to 30 min. Further, the “reversibility of effect on fast inward sodium current on wash out” value in test [3] (50 μM amyloid β 1-40, about 90 and 120 minutes shake-induced aggregation, hippocampal neuron) is listed as “cannot wash out”. Further, the “block of fast inward sodium current” value in test [3] (10-50 μM amyloid β 1-40 aggregated for various times, in about 5-30 minutes, holding potential −50 to −80 mV) is given as no more than 90%. The “effect on neuronal inward calcium currents” value in test [4] is recorded as “depress neuronal inward calcium currents”. Besides, in test [5] (all cells, at all step potentials), the “block of delayed outward potassium current” value is 30-40%. Moreover, the “resting membrane potential after hyperpolarization (from −50 mV)” value in test [5] (cells in which an outward holding current was induced) is listed as −90 mV. Further, the “membrane potential after gradual depolarization” value in test [5] (other cells, slight inhibition of the outward holding current) is “about −40 mV”. Further, the “induced outward holding current” value in test [5] (voltage-clamp, within the first 2-5 minutes, in some cells) was 10-50 pA. Also, the “time of shake-induced aggregation giving peak impact on sodium channel activity (% decrease in INa)” value in test [1] (50 μM amyloid β 1-40) fell in the range of 60 to 80 min. Further, the “inhibition level of the fast inward sodium channels after saturation of peptide aggregation” value in test [1] (after reaching saturation of aggregation, mean values of four experiments) is greater than 50%.

For the molecule `NC1=N[C@H](O)[C@H]2[C@H]3O[C@]4(O)O[C@@H]([C@@H](O)[C@@]2(N1)[C@@H]4O)[C@]3(O)CO` [tetrodotoxin (TTX), tetrodotoxin], in test [3], the “sensitivity of fast inward sodium current to blocker” value is reported as “sensitive”.

For the molecule “Monomers of amyloid β 1-40: Non-aggregated monomeric form of amyloid β 1-40”, the “impact on the parameters assessed (resting potential, action potential, sodium, calcium, potassium channels)” value in test [1] (monomeric form, before aggregation) is reported as “did not show significant impact”.
